Data on 14 compounds can be found in patent US7705003B2, “Cyclohexylamides as dopamine D3, D2 and 5-HT1A Antagonists” (Richter Gedeon Vegyeszeti Gyar RT., priority 2005, dated 2010).

Data set [1] relates to Male CD-1 mice. In words: Inhibition of apomorphine induced climbing. Type of data set: in vivo. The settings on record: for ED50: Mus musculus; for ranking of activity in apomorphine climbing assay: apomorphine climbing in mice. On the procedure:
With respect to the expected clinical application of the compounds of the present invention in addition to their receptor binding profile their in vivo efficacy is a crucial issue as well. Therefore, in vivo potency and efficacy of the compounds of formula (I) were studied in the apomorphine climbing assay, an animal screening test for antipsychotic activity.
5. Inhibition of Apomorphine Induced Climbing
Male CD-1 mice weighing 20-25 g were injected orally (n=12) with the test compound or vehicle. Fifty minutes later the animals were placed into cylindrical cages with walls of vertical metal bars. After 10 minutes habituation the mice were treated with apomorphine (1.5 mg/kg sc.). […] Scores were summed for each individual and group means were calculated. Drug effect was expressed and plotted as percentage inhibition of the apomorphine induced behaviour.

The target of data set [2] is α1 receptor. The data set is described as follows: α-1 receptor binding ([3H]-prazosine, rat cortical membrane). On the procedure: α1 receptor binding study was performed according to the methods described by Greengrass and Bremner (Eur. J. Pharmacol., 55:323-326, 1979) on rat cortical membrane preparation using [^3H]-prazosine (0.22-0.37 nM) as ligand. The non-specific binding was determined in the presence of 10 μM phentolamine.

Data set [3] has as its target T1, 5-HT1A receptor (Rattus norvegicus, UniProt P19327).
T1 construct: on rat hippocampal membrane preparation; from tissue; host or cells: rat hippocampus membranes
T1 sequence (P19327 1-422): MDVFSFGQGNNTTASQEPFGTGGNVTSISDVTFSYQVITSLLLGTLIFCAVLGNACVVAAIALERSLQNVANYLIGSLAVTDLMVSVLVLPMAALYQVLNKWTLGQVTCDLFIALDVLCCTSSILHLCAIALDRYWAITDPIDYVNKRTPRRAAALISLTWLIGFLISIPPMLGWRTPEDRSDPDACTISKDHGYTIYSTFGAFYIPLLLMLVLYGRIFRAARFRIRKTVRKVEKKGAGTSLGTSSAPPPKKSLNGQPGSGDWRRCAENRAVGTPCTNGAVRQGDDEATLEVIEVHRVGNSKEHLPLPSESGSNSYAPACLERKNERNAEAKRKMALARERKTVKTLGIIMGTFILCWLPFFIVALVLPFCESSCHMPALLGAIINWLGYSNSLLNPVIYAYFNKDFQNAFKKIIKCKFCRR
In words: 5-HT1A binding ([3H]8-OH-DPAT, rat hippocampal membrane). The following applies: [3H]8-hydroxy-2-(di-n-propylamino)-tetralin. As for the experimental part: The non-specific binding was determined in the presence of 10 μM serotonin creatinine sulphate.

The target in data set [4] is D2 receptor (Rattus norvegicus, UniProt P61169). The data set is described as follows: D2 receptor binding ([3H]spiperone, rat brain striatal membrane). On the procedure:
Non-specific binding was determined in the presence of 1 μM (+) butaclamol.

Data set [5] concerns the target T2, rat recombinant D3 receptors (Rattus norvegicus, UniProt P19020).
T2 construct: purchased Perkin-Elmer 6110139; host or cells: Sf9 cells
The data set is described as follows: D3 receptor binding ([3H]spiperone). The following applies: rat recombinant D3 receptors expressed in Sf9 cells.

T2 sequence (P19020 whole entry): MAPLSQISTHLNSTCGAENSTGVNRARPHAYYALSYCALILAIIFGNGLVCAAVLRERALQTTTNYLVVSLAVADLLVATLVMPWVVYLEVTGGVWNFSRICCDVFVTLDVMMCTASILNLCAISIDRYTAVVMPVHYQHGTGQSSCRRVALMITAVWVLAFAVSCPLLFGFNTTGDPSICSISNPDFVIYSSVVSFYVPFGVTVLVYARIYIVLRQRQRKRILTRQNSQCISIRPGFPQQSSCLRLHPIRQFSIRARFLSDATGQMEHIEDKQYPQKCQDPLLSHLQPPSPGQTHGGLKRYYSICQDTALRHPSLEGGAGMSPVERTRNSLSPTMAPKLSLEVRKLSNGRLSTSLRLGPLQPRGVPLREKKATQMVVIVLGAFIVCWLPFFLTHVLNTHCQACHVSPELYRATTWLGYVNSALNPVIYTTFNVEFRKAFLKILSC
Chain of D2 receptor (P61169 1-415 isoform P61169-2): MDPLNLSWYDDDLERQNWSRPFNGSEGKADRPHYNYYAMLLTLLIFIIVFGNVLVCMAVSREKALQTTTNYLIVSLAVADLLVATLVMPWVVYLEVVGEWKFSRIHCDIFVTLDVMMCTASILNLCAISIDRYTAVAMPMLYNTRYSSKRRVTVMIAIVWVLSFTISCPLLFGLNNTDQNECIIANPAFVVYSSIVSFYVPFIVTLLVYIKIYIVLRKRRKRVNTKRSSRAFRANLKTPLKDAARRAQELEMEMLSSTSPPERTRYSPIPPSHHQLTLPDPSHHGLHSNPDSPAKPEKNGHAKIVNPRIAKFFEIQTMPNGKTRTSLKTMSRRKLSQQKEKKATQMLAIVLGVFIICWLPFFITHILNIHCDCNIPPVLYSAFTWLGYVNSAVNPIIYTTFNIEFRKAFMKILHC

On to `O=C1CCc2ccc(OCCCCN3CCN(c4cccc(Cl)c4Cl)CC3)cc2N1` [Aripiprazole, reference compound], for which the ED50 (usually the dose at which the effect has come halfway, by size or by number of responders) in data set [1] turned out to be 1 mg/kg.

Consider `CC(=O)N[C@H]1CC[C@H](CCN2CCN(c3cccc4c3CCC4)CC2)CC1` [Compound 1, trans-N-{4-[2-[4-(indan-4-yl)-piperazin-1-yl]-ethyl]-cyclohexyl}-acetamide], for which the melting point (in general, the temperature of the solid-liquid transition) lay in the range of 202 to 204 °C. In data set [2], the IC50 (in general, the concentration needed to halve the response being measured) fell in the range of 40 to 200 nM. In addition, in data set [1], the 50% effective dose (ED50) is 0.14 mg/kg and the “ranking of activity in apomorphine climbing assay” value (shortened to “ranking of activity”) is reported as “most active”. The compound further returned a half-inhibitory concentration (IC50) in data set [3] of 1 to 20 nM. Further, the IC50 in data set [4] fell in the range of 10 to 40 nM. In addition, the concentration for half-maximal inhibition (IC50) in data set [5] is < 2 nM.

For `CCC(=O)N[C@H]1CC[C@H](CCN2CCN(c3cccc4c3CCC4)CC2)CC1` [Compound 2, trans-N-{4-[2-[4-(indan-4-yl)-piperazin-1-yl]-ethyl]-cyclohexyl}-propionamide], the melting point fell in the range of 194 to 196 °C. Further, in data set [2], the IC50 was 40 to 200 nM. Moreover, in data set [1], the 50% effective dose (ED50) is 0.21 mg/kg. In addition, the IC50 in data set [3] is 1 to 20 nM. The same compound came in with an IC50 in data set [4] of 10 to 40 nM. The IC50 in data set [5] was < 2 nM.

Regarding `CN(C)C(=O)N[C@H]1CC[C@H](CCN2CCN(c3cccc4c3CCC4)CC2)CC1` [Compound 3, trans-1-{4-[2-[4-(indan-4-yl)-piperazin-1-yl]-ethyl]-cyclohexyl}-3,3-dimethyl-urea], the melting point fell in the range of 150 to 152 °C. In data set [2], this compound showed a half-inhibitory concentration (IC50) of 40 to 200 nM. In data set [1], the 50% effect level (ED50) was put at a dose of 0.11 mg/kg and the “ranking of activity” value is given as “most active”. For the same compound, in data set [3], the IC50 lay in the range of 1 to 20 nM. Also, in data set [4], the IC50 was 10 to 40 nM. The IC50 in data set [5] was < 2 nM.

For `CCN(CC)C(=O)N[C@H]1CC[C@H](CCN2CCN(c3cccc4c3CCC4)CC2)CC1` [Compound 4, trans-1-{4-[2-[4-(indan-4-yl)-piperazin-1-yl]-ethyl]-cyclohexyl}-3,3-diethyl-urea], the melting point fell in the range of 157 to 159 °C. In data set [2], this compound showed a half-maximal inhibitory concentration (IC50) of 40 to 200 nM. In data set [1], this compound yielded an ED50 of 0.46 mg/kg. In data set [3], this compound yielded a half-maximal inhibitory concentration (IC50) of 1 to 20 nM. For the same compound, in data set [4], the half-maximal inhibitory concentration (IC50) fell in the range of 10 to 40 nM. Besides, in data set [5], the 50% inhibitory concentration (IC50) is < 2 nM.

`CCNC(=O)N[C@H]1CC[C@H](CCN2CCN(c3cccc4c3CCC4)CC2)CC1` [Compound 5, trans-1-{4-[2-[4-(indan-4-yl)-piperazin-1-yl]-ethyl]-cyclohexyl}-3-ethyl-urea] returned a melting point of 198 to 200 °C. The compound also yielded an IC50 in data set [2] of 40 to 200 nM. For the same compound, the median effective dose (ED50) in data set [1] was found to be 0.47 mg/kg. This compound showed an IC50 in data set [3] of 1 to 20 nM. The same compound had a half-inhibitory concentration (IC50) in data set [4] of 10 to 40 nM. Besides, the IC50 in data set [5] was < 2 nM.

For the compound `O=C(N[C@H]1CC[C@H](CCN2CCN(c3cccc4c3CCC4)CC2)CC1)N1CCOCC1` [Compound 6, trans-N-{4-[2-[4-(indan-4-yl)-piperazin-1-yl]-ethyl]-cyclohexyl}-morpholine-4-carboxamide], the melting point lay within 181 to 182 °C. Moreover, the IC50 in data set [2] was 40 to 200 nM. In data set [1], the ED50 was 0.16 mg/kg and the “ranking of activity” value was “most active”. In addition, in data set [3], the half-inhibitory concentration (IC50) was in the range of 1 to 20 nM. For the same compound, in data set [4], the half-maximal inhibitory concentration (IC50) lay in the range of 10 to 40 nM. In addition, the IC50 in data set [5] was < 2 nM.

Compound `NC(=O)N[C@H]1CC[C@H](CCN2CCN(c3cccc4c3CCC4)CC2)CC1` [Compound 7, trans-1-{4-[2-[4-(indan-4-yl)-piperazin-1-yl]-ethyl]-cyclohexyl}-urea] had a melting point of 204 to 206 °C.

As for `CN(C)C(=O)N[C@H]1CC[C@H](CN2CCN(c3cccc4c3CCC4)CC2)CC1` [Compound 8, trans-1-{4-[[4-(indan-4-yl)-piperazin-1-yl]-methyl]-cyclohexyl}-3,3-dimethyl-urea], the melting point lay in the range of 152 to 154 °C.

Consider `CC(=O)N[C@H]1CC[C@H](CCN2CCN(c3cccc4c3CCCC4)CC2)CC1` [Compound 9, trans-N-{4-[2-[4-(5,6,7,8-tetrahydronaphthalen-1-yl)-piperazin-1-yl]-ethyl]-cyclohexyl}-acetamide], for which the melting point was 187 to 189 °C. Moreover, the IC50 in data set [2] was > 200 nM. Moreover, it took a dose of 0.26 mg/kg to reach the 50% effect level in data set [1] (ED50). The 50% inhibitory concentration (IC50) in data set [3] was in the range of 1 to 20 nM. Besides, the IC50 in data set [4] fell in the range of 10 to 40 nM. The half-maximal inhibitory concentration (IC50) in data set [5] was < 2 nM.

Consider `CCC(=O)N[C@H]1CC[C@H](CCN2CCN(c3cccc4c3CCCC4)CC2)CC1` [Compound 10, trans-N-{4-[2-[4-(5,6,7,8-tetrahydronaphthalen-1-yl)-piperazin-1-yl]-ethyl]-cyclohexyl}-propionamide], for which the melting point fell in the range of 182 to 185 °C. The IC50 in data set [2] was > 200 nM. For the same compound, the 50% effective dose (ED50) in data set [1] is 0.35 mg/kg. This compound came in with a 50% inhibitory concentration (IC50) in data set [3] of 1 to 20 nM. This compound gave a concentration for half-maximal inhibition (IC50) in data set [4] of 10 to 40 nM. Further, in data set [5], the half-maximal inhibitory concentration (IC50) was < 2 nM.

On to `CN(C)C(=O)N[C@H]1CC[C@H](CCN2CCN(c3cccc4c3CCCC4)CC2)CC1` [Compound 11, trans-1-{4-[2-[4-(5,6,7,8-tetrahydronaphthalen-1-yl)-piperazin-1-yl]-ethyl]-cyclohexyl}-3,3-dimethyl-urea], for which the melting point lay within 190 to 193 °C. The IC50 in data set [2] was in the range of 40 to 200 nM. Moreover, the 50% effective dose (ED50) in data set [1] was 0.23 mg/kg. The 50% inhibitory concentration (IC50) in data set [3] is 1 to 20 nM. In data set [4], this compound gave an IC50 of 10 to 40 nM. In data set [5], the IC50 was < 2 nM.

Compound `O=C(N[C@H]1CC[C@H](CCN2CCN(c3cccc4c3CCCC4)CC2)CC1)N1CCOCC1` [Compound 12, trans-N-{4-[2-[4-(5,6,7,8-tetrahydronaphthalen-1-yl)-piperazin-1-yl]-ethyl]-cyclohexyl}-morpholine-4-carboxamide] gave a melting point of 178 to 180 °C. The half-inhibitory concentration (IC50) in data set [2] lay within 40 to 200 nM. In data set [1], this compound gave a median effective dose (ED50) of 0.2 mg/kg. The IC50 in data set [3] is 1 to 20 nM. Further, the half-inhibitory concentration (IC50) in data set [4] was 10 to 40 nM. In data set [5], the IC50 was < 2 nM.

For `Cc1cc2c(s1)Nc1ccccc1N=C2N1CCN(C)CC1` [Olanzapine, reference compound], the ED50 in data set [1] worked out at 1.3 mg/kg.
